One compound from PubChem BioAssay (NCI) can be followed below.

SMILES strings stand for the structures.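 Values below derive from 48-hour exposures of cells grown in 96-well plates, with endpoints linearly interpolated between the two concentrations bracketing the appropriate inhibition level. Definition used: TGI = concentration required for complete inhibition of growth.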

Among the test systems are ACHN renal; CCRF-CEM leukemia; HCC-2998 colon; HCT-15 colon; HS 578T breast; MCF7 breast; MDA-N; NCI/ADR-RES ovarian; OVCAR-3 ovarian; SF-268 CNS; SF-295 CNS; SF-539 CNS; SK-MEL-2 melanoma; SK-MEL-28 melanoma; TK-10 renal; U251 CNS; UACC-257 melanoma; UACC-62 melanoma.
What all share (experiment): DTP human tumour cell line panel, 48 h

Turning to `C=CC[C@@]1([C@H](C=C)COCc2ccc(OC)cc2)CC[C@]2(C)OC(C)(C)[C@@H](c3ccccc3)N2C1=S`, the TGI in the test with ACHN renal, in the test on CCRF-CEM leukemia, in the test on HCC-2998 colon, with HCT-15 colon, in the test with HS 578T breast and with MCF7 breast was greater than 100 µM each time. The TGI in the test with MDA-N, in the test on NCI/ADR-RES ovarian, in the test with OVCAR-3 ovarian, in the test with SF-268 CNS, with SF-295 CNS and in the test on SF-539 CNS was greater than 100 µM each time. Besides, the TGI is 62.3 µM with SK-MEL-2 melanoma; greater than 100 µM with SK-MEL-28 melanoma; greater than 100 µM in the test on TK-10 renal; greater than 100 µM with U251 CNS; greater than 100 µM in the test on UACC-257 melanoma; greater than 100 µM with UACC-62 melanoma.

As usually defined, the TGI is the concentration giving total growth inhibition. A high value points to lower sensitivity of the cells.
